# Experimental data: ChEMBL document CHEMBL6120994, “Unravelling the potential of natural chelating agents in the control of Staphylococcus aureus and Pseudomonas aeruginosa biofilms” (Eur J Med Chem, 2025)
# Tests used:
# [1] = Metal chelating activity assessed as compound-Fe(III) complex formation by measuring RhB degradation in MgO2/Fe(III) system measured within 30 mins by UV-Visible spectrophotometry
# [2] = tested on: Staphylococcus aureus; test: Bactericidal activity against Staphylococcus aureus CECT 976 assessed as bacterial killing incubated in MHB for 24 hrs and measured following culturing on agar plate for 24 hrs; assay type: functional; settings: time 48 hrs
# [3] = tested on: Pseudomonas aeruginosa; test: Antibacterial activity against Pseudomonas aeruginosa ATCC 10145 assessed as inhibition of bacterial growth incubated for 24 hrs by broth microdilution method; assay type: functional
# [4] = tested on: Pseudomonas aeruginosa; test: Bactericidal activity against Pseudomonas aeruginosa ATCC 10145 assessed as bacterial killing incubated in MHB for 24 hrs and measured following culturing on agar plate for 24 hrs; assay type: functional; settings: time 48 hrs
# [5] = tested on: Staphylococcus aureus; test: Antibacterial activity against Staphylococcus aureus CECT 976 assessed as inhibition of bacterial growth incubated for 24 hrs by broth microdilution method; assay type: functional
structure (smiles),measurement,setting,value
O=C(O)C(=O)O,Activity,[1],48.9%
O=C(O)CC(O)(CC(=O)O)C(=O)O,Activity,[1],42.3%
O=C(O)[C@@H](O)[C@H](O)C(=O)O,Activity,[1],98.5%
O=C(O)c1cn(C2CC2)c2cc(N3CCNCC3)c(F)cc2c1=O [CIPROFLOXACIN],MBC,[2],8 µg/mL
same,MIC,[3],32 µg/mL
same,MBC,[4],32 µg/mL
O=C(O)CN(CCN(CC(=O)O)CC(=O)O)CC(=O)O,Activity,[1],25.8%
NC[C@H]1O[C@H](O[C@H]2[C@H](O)[C@@H](O[C@H]3O[C@H](CO)[C@@H](O)[C@H](N)[C@H]3O)[C@H](N)C[C@@H]2N)[C@H](N)C[C@@H]1O [TOBRAMYCIN],MIC,[5],4 µg/mL
same,MBC,[2],4 µg/mL
same,MIC,[3],8 µg/mL
same,MBC,[4],16 µg/mL
